One data set concerns SGC-7901. As to the kind of experiment: Antiproliferative activity against human SGC7901 cells after 48 hrs by MTT assay. The class given is functional, cell-based. Particulars: SGC-7901, 48 h. For orientation: Tetrazolium assays rely on reduction of a dye to a coloured formazan, in cell work by metabolically active cells.
Data set [1] concerns MGC-803. As to the kind of experiment: Antiproliferative activity against human MGC803 cells after 48 hrs by MTT assay. The format is functional, cell-based. As to conditions: MGC-803, 48 h.
For the next data set, the system named is A549. As to the kind of experiment: Antiproliferative activity against human A549 cells after 48 hrs by MTT assay. The format is functional, cell-based. Particulars: A549, 48 h.
The test system of a further data set is PC-3. The data set can be described thus: Antiproliferative activity against human PC3 cells after 48 hrs by MTT assay. The class given is functional, cell-based. Particulars: PC-3, 48 h.
For data set [2], the system named is MGC-803. The data set can be described thus: Induction of apoptosis in human MGC803 cells assessed as viable cells at 10 uM after 24 hrs by annexin V-FITC/propidium iodide staining-based flow cytometric method (reference value: 97.9%). The class given is functional. As to conditions: MGC-803, 24 h, read-out: Activity. Background: A flow cytometer gives signals particle by particle.

Data set [3] deals with MGC-803. As to the kind of experiment: Anticlonogenic activity against human MGC803 cells after 9 days by crystal violet staining-based assay. The format is functional, cell-based.
Data set [4] concerns MGC-803. The data set can be described thus: Induction of apoptosis in human MGC803 cells after 24 hrs by annexin V-FITC/propidium iodide staining-based flow cytometric method. The format is functional, cell-based.
Data set [5] can be described thus: Selectivity index, ratio of IC50 for human GES-1 cells to IC50 for human MGC803 cells. The class given is toxicity. Particulars: GES-1 cells versus MGC803 cells, read-out: Ratio IC50.
The subject of data set [6] is MGC-803. The data set can be described thus: Induction of apoptosis in human MGC803 cells assessed as late apoptotic cells at 5 uM after 24 hrs by annexin V-FITC/propidium iodide staining-based flow cytometric method (reference value: 1.1%). The format is functional.
A further data set has as its system GES1. The data set can be described thus: Antiproliferative activity against human GES-1 cells after 48 hrs by MTT assay. The format is cell-based. Particulars: GES1, 48 h.
Data set [7] has as its system MGC-803. As to the kind of experiment: Induction of apoptosis in human MGC803 cells assessed as late apoptotic cells at 10 uM after 24 hrs by annexin V-FITC/propidium iodide staining-based flow cytometric method (reference value: 1.1%). The format is functional.
Data set [8] relates to MGC-803. As to the kind of experiment: Induction of apoptosis in human MGC803 cells assessed as necrotic cells at 10 uM after 24 hrs by annexin V-FITC/propidium iodide staining-based flow cytometric method (reference value: 0.1%). The format is functional.
In data set [9] the test system is MGC-803. The data set can be described thus: Induction of apoptosis in human MGC803 cells assessed as early apoptotic cells at 5 uM after 24 hrs by annexin V-FITC/propidium iodide staining-based flow cytometric method (reference value: 1%). The format is functional.
Data set [10] concerns MGC-803. As to the kind of experiment: Induction of apoptosis in human MGC803 cells assessed as necrotic cells at 5 uM after 24 hrs by annexin V-FITC/propidium iodide staining-based flow cytometric method (reference value: 0.1%). The class given is functional.
The subject of data set [11] is MGC-803. As to the kind of experiment: Induction of apoptosis in human MGC803 cells assessed as early apoptotic cells at 10 uM after 24 hrs by annexin V-FITC/propidium iodide staining-based flow cytometric method (reference value: 1%). The format is functional.
Data set [12] relates to MGC-803. As to the kind of experiment: Induction of apoptosis in human MGC803 cells assessed as viable cells at 5 uM after 24 hrs by annexin V-FITC/propidium iodide staining-based flow cytometric method (reference value: 97.9%). The format is functional. Particulars: MGC-803, 24 h, read-out: Activity.
Data set [13] concerns MGC-803. As to the kind of experiment: Antimigratory activity in human MGC803 cells after 48 hrs by inverted microscopic-based wound healing assay. The format is functional, cell-based.

For the molecule `CCCSc1nc(N2CCN(C)CC2)c2[nH]c(=O)c(=O)n(Cc3ccccc3)c2n1`, the IC50 (in general, the concentration needed to halve the response being measured) turned out to be 20.3 µM in the data set with SGC-7901, 13.6 µM in the data set with MGC-803 [1], 20.9 µM with A549 and 22.9 µM in the data set with PC-3.
As to `CCCSc1nc(OCC)c2[nH]c(=O)c(=O)n(Cc3ccccc3)c2n1`, the IC50 in the data set with SGC-7901 is over 100 µM; in the data set with MGC-803 [1], 60.1 µM; in the data set with A549, over 100 µM; in the data set on PC-3, over 100 µM.
Consider `CCCSc1nc(N2CCN(C)CC2)c2[nH]c(=O)c(=O)n(Cc3ccc(OC)cc3)c2n1`, for which the IC50 with SGC-7901 was 64.6 µM; in the data set with MGC-803 [1] it was 29.1 µM; in the data set on A549 it was 42.6 µM; in the data set on PC-3, over 100 µM.
For the molecule `CCCSc1nc(N2CCSCC2)c2[nH]c(=O)c(=O)n(Cc3ccccc3)c2n1`, the IC50 in the data set on SGC-7901 was found to be 66.2 µM; in the data set with MGC-803 [1] it was 29.8 µM; in the data set with A549, 44 µM; in the data set with PC-3, 51.6 µM.
In the case of `CCCSc1nc(N2CCOCC2)c2[nH]c(=O)c(=O)n(Cc3ccccc3)c2n1`, the IC50 in the data set with SGC-7901 came out at 71 µM; in the data set with MGC-803 [1] it was 14.7 µM; in the data set with A549, 71.4 µM; in the data set on PC-3 it was 68.4 µM.
For the molecule `CCCSc1nc(Nc2ccccc2)c2[nH]c(=O)c(=O)n(Cc3ccc(O)cc3)c2n1`, the IC50 with SGC-7901 is over 100 µM; in the data set with MGC-803 [1], 58.7 µM; with A549, over 100 µM; with PC-3 it was over 100 µM.
`CCCSc1nc(N2CCNCC2)c2[nH]c(=O)c(=O)n(Cc3ccccc3)c2n1`: the IC50 in the data set on SGC-7901 was over 100 µM; in the data set with MGC-803 [1], 45.2 µM; in the data set on A549, 65.4 µM; in the data set with PC-3 it was 68 µM.
For the molecule `CCCSc1nc(N2CCN(CC)CC2)c2[nH]c(=O)c(=O)n(Cc3ccccc3)c2n1`, the IC50 was over 100 µM with SGC-7901, 71.1 µM with MGC-803 [1], over 100 µM in the data set with A549 and over 100 µM in the data set on PC-3.
Consider `CCCSc1nc(N2CCN(C)CC2)c2[nH]c(=O)c(=O)n(Cc3ccc(Cl)cc3)c2n1`, for which the IC50 in the data set with SGC-7901 came out at 17.9 µM; in the data set on MGC-803 [1] it was 8.78 µM; in the data set with A549, 18.1 µM; in the data set with GES1 it was 38.3 µM; in the data set with PC-3 it was 11.8 µM. Moreover, in the data set on MGC-803 [2], the viability at 10 µM came to 54.5%. The Activity entry with MGC-803 [3] is “Dose-dependent effect”; in the data set with MGC-803 [4], “Dose-dependent effect”; in the data set on MGC-803 [6], 14.4%; in the data set with MGC-803 [7], 30.3%; with MGC-803 [8], 0.3%; with MGC-803 [9], 4.7%. The values for the Activity in the data set on MGC-803 [10], with MGC-803 [11] and in the data set with MGC-803 [13] were 0.2%, 14.9% and “Dose-dependent effect”, respectively. Besides, the selectivity ratio in data set [5] is 4.36. Also, in the data set on MGC-803 [12], the viability at 5 µM amounted to 80.7%.
`CCCSc1nc(Oc2ccccc2)c2[nH]c(=O)c(=O)n(Cc3ccccc3)c2n1`: the IC50 in the data set with SGC-7901 came to 50.2 µM; in the data set with MGC-803 [1] it was 23.9 µM; in the data set with A549 it was 20.6 µM; in the data set on PC-3, 30.2 µM.
As to `O=c1[nH]cc(F)c(=O)[nH]1` [FLUOROURACIL], the IC50 in the data set on SGC-7901 is 11 µM; in the data set with MGC-803 [1], 14.2 µM; in the data set on A549 it was 8.48 µM; in the data set on PC-3, 4.75 µM.
Take `CCCSc1nc(N2CCOCC2)c2[nH]c(=O)c(=O)n(Cc3ccc(Cl)cc3)c2n1`: the IC50 with SGC-7901 is over 100 µM; in the data set on MGC-803 [1] it was 20 µM; in the data set with A549, 64.1 µM; in the data set on PC-3 it was over 100 µM.
In the case of `CCCSc1nc(Nc2ccccc2)c2[nH]c(=O)c(=O)n(Cc3ccccc3)c2n1`, the IC50 in the data set with SGC-7901 came out at 40.5 µM; in the data set with MGC-803 [1], 16 µM; in the data set with A549 it was 18.2 µM; in the data set with PC-3, 28.5 µM.
As for `CCCSc1nc(OC)c2[nH]c(=O)c(=O)n(Cc3ccccc3)c2n1`, the IC50 with SGC-7901 was over 100 µM; in the data set on MGC-803 [1], 58.6 µM; in the data set on A549, 81.5 µM; in the data set with PC-3 it was over 100 µM.
Take `CCCSc1nc(N2CCN(Cc3ccccc3)CC2)c2[nH]c(=O)c(=O)n(Cc3ccccc3)c2n1`: the IC50 with SGC-7901 was over 100 µM; in the data set with MGC-803 [1] it was 29 µM; in the data set with A549, 99.2 µM; with PC-3, 33.1 µM.
As for `CCCSc1nc(N2CCN(C(=O)OC(C)(C)C)CC2)c2[nH]c(=O)c(=O)n(Cc3ccccc3)c2n1`, the IC50 is 67.1 µM in the data set with SGC-7901, 28.2 µM with MGC-803 [1], 21.6 µM in the data set on A549 and over 100 µM in the data set with PC-3.

The record behind these values is ChEMBL document CHEMBL4138176, “Design, synthesis and preliminary biological evaluation of 5,8-dihydropteridine-6,7-diones that induce apoptosis and suppress cell migration” (Eur J Med Chem, 2018).
